According to patent US7572252B1 (priority 1995, dated 2009):

Experiment: Transdermal electrotransport goserelin delivery at two constant current densities (Example 4)
Assay type: in vivo, human
Protocol: This study was undertaken to evaluate the relationship between current density and drug flux in the transdermal electrotransport delivery of goserelin. The study involved the application of electrotransport devices, applying constant current, to 12 normal male volunteers for a duration of 8 hours.
The two electrotransport treatment regimens in this study differed only in applied current density levels. The electrotransport devices delivered goserelin through the skin from polyvinyl alcohol (PVOH)-based donor hydrogels having a skin-contact surface area of 4 cm^2. The gels contained an aqueous goserelin solution. The current density levels used in this study were 50 and 100 μA/cm^2. After an 8 hour treatment period, the electrotransport devices were removed. The skin site was then washed to remove any residual goserelin. All 12 volunteers received each treatment seven days apart.
For each treatment, seven blood samples were taken over a 24 hour period commencing with the application of current from the electrotransport devices. Serum goserelin concentrations from each patient were used to calculate mean drug flux and the mean total amount of drug delivered.

In the case of CC(C)C[C@H](NC(=O)[C@@H](COC(C)(C)C)NC(=O)[C@H](Cc1ccc(O)cc1)NC(=O)[C@H](CO)NC(=O)[C@H](Cc1c[nH]c2ccccc12)NC(=O)[C@H](Cc1cnc[nH]1)NC(=O)[C@@H]1CCC(=O)N1)C(=O)N[C@@H](CCCNC(=N)N)C(=O)N1CCC[C@H]1C(=O)NNC(N)=O [goserelin], the “average transdermal goserelin flux” value (50 microA/cm^2 constant current, 4 cm^2, 8 h) was 5.8 microgram per hour, the “average transdermal flux of goserelin” value (100 microA/cm^2 constant current, 4 cm^2, 8 h) was 21.6 µg/h and the “increase in drug flux” value (current density rises from 50 to 100 μA/cm^2) was “almost four-fold increase”.
